In US12404304B1, “Telomerase reverse transcriptase (TERT) expression enhancing compounds and methods for using the same” (Sierra Sciences, LLC, priority 2007, dated 2025):

System: viable cells in culture
Test: Cell viability assay (CellTiter-Glo Luminescent Cell Viability Assay, ATP quantitation, percent of vehicle control)
Description: Cell viability is determined using a homogeneous method, such as CellTiter-Glo® Luminescent Cell Viability Assay (Promega Corporation, Madison, WI.) to determine the number of viable cells in culture These assays are based on quantitation of the ATP present, which signals the presence of metabolically active cells. Luminescent values of compound treated cells are compared to that of cells treated with vehicle alone to determine the average cell viability as a percent of control.

SMILES	Average Cell Viability after 24 Hours (% DMSO)
CCC(=O)NC(c1ccc(N(C)C)cc1)c1ccc2cccnc2c1O (stereo not shown) [compound 1001]	44.55
Oc1c(CN2CCN(c3cccc(Cl)c3)CC2)cc(Br)c2cccnc12 [compound 1002]	57.70
CN1CCN(Cc2cc(COCc3ccccc3)c3cccnc3c2O)CC1 [compound 1003]	73.53
Oc1c(C(Nc2ccccn2)c2ccc(OC3CCCC3)cc2)ccc2cccnc12 (stereo not shown) [compound 1004]	54.71
COc1cc(C(Nc2ccccn2)c2ccc3cccnc3c2O)cc(Br)c1OC (stereo not shown) [compound 1005]	64.80
Oc1c(C(Nc2ccccn2)c2cccc(Cl)c2Cl)ccc2cccnc12 (stereo not shown) [compound 1006]	69.78
Oc1c(C(Nc2ccccn2)c2ccccc2Br)ccc2cccnc12 (stereo not shown) [compound 1007]	68.00
COC(=O)c1ccc(C(Nc2cc(C)ccn2)c2ccc3ccc(C)nc3c2O)cc1 (stereo not shown) [compound 1008]	67.58
Oc1c(C(Nc2ccccn2)c2c(Cl)cccc2Cl)ccc2cccnc12 (stereo not shown) [compound 1009]	68.59
CCN(CC)c1ccc(C(NC(=O)C(C)C)c2cc(Cl)c3cccnc3c2O)cc1 (stereo not shown) [compound 1011]	64.50
COc1ccc(C(=O)NC(c2ccco2)c2cc(Cl)c3cccnc3c2O)cc1 (stereo not shown) [compound 1012]	60.73
COc1cccc(C(=O)NC(c2ccc(OC)c(OC)c2)c2cc(Cl)c3cccnc3c2O)c1 (stereo not shown) [compound 1013]	74.96
COc1ccc(C(=O)NC(c2ccc(Cl)cc2)c2cc(Cl)c3cccnc3c2O)cc1 (stereo not shown) [compound 1014]	28.33
O=C(COc1ccccc1)NC(/C=C/c1ccccc1)c1cc(Cl)c2cccnc2c1O (stereo not shown) [compound 1015]	74.68
COc1ccc(C(=O)NC(/C=C/c2ccccc2)c2cc(Cl)c3cccnc3c2O)cc1 (stereo not shown) [compound 1016]	42.84
COc1cccc(C(=O)NC(/C=C/c2ccccc2)c2cc(Cl)c3cccnc3c2O)c1 (stereo not shown) [compound 1017]	75.48
Oc1c(I)cc(I)c2cccnc12 [compound 1018]	56.90
Oc1c(Br)cc(Br)c2cccnc12 [compound 1019]	35.74
Oc1c(Cl)cc(Cl)c2cccnc12 [compound 1020]	25.10
CC(=O)NC(c1ccc(Br)cc1)c1ccc2cccnc2c1O (stereo not shown) [compound 1022]	63.83
COc1ccc(C(NC(C)=O)c2ccc3cccnc3c2O)cc1OC (stereo not shown) [compound 1023]	75.33
CC(=O)NC(c1ccc(C)cc1)c1ccc2cccnc2c1O (stereo not shown) [compound 1024]	95.15
CC(=O)NC(c1ccccc1Cl)c1ccc2cccnc2c1O (stereo not shown) [compound 1025]	93.50
CCCCC(=O)NC(c1ccccc1OC)c1cc([N+](=O)[O-])c2cccnc2c1O (stereo not shown) [compound 1027]	62.71

SMILES	Average Cell Viability after 24 Hours (% DMSO)
O=[N+]([O-])c1cc(CN2CCN(c3ccccc3)CC2)c(O)c2ncccc12 [compound 1029]	32.00
CC(=O)NC(c1ccc(C(C)C)cc1)c1ccc2cccnc2c1O (stereo not shown) [compound 1030]	73.78
CCCCC(=O)NC(c1ccccc1Cl)c1cc([N+](=O)[O-])c2cccnc2c1O (stereo not shown) [compound 1031]	76.88
CCC(=O)NC(c1ccc(OC)c(OC)c1)c1cc(Cl)c2cccnc2c1O (stereo not shown) [compound 1032]	75.67
CCOc1cc(C(NC(C)=O)c2cc([N+](=O)[O-])c3cccnc3c2O)ccc1O (stereo not shown) [compound 1033]	84.43
CC(=O)NC(c1ccco1)c1cc([N+](=O)[O-])c2cccnc2c1O (stereo not shown) [compound 1034]	83.39
CCC(=O)NC(/C=C/c1ccccc1)c1cc([N+](=O)[O-])c2cccnc2c1O (stereo not shown) [compound 1035]	62.45
CCCC(=O)NC(c1ccc(O)c(OCC)c1)c1cc([N+](=O)[O-])c2cccnc2c1O (stereo not shown) [compound 1036]	73.28
CC(=O)NC(c1ccc(Cl)cc1)c1cc([N+](=O)[O-])c2cccnc2c1O (stereo not shown) [compound 1037]	67.96
CCC(=O)NC(c1ccco1)c1cc(Cl)c2cccnc2c1O (stereo not shown) [compound 1039]	72.76
CCCCC(=O)NC(c1ccc(OC)cc1)c1cc([N+](=O)[O-])c2cccnc2c1O (stereo not shown) [compound 1040]	61.11
CCC(=O)NC(c1ccccc1Cl)c1cc(Cl)c2cccnc2c1O (stereo not shown) [compound 1041]	72.82
CC(C)C(=O)NC(c1ccc(Cl)cc1Cl)c1ccc2cccnc2c1O (stereo not shown) [compound 1042]	55.51
CCC(=O)NC(c1ccccc1OC)c1cc(Cl)c2cccnc2c1O (stereo not shown) [compound 1043]	47.47
CCCC(=O)NC(c1ccc(Cl)cc1)c1cc([N+](=O)[O-])c2cccnc2c1O (stereo not shown) [compound 1044]	85.35
O=C(NC(c1ccc(Cl)cc1)c1ccc2cccnc2c1O)C1CCCCC1 (stereo not shown) [compound 1045]	60.30
CCCCC(=O)NC(c1ccc2c(c1)OCO2)c1cc([N+](=O)[O-])c2cccnc2c1O (stereo not shown) [compound 1046]	78.00
Cc1ccc(C(NC(=O)C2CCCCC2)c2ccc3cccnc3c2O)cc1 (stereo not shown) [compound 1047]	69.78
CCCC(=O)NC(c1cccs1)c1cc([N+](=O)[O-])c2cccnc2c1O (stereo not shown) [compound 1048]	70.37
CCC(=O)NC(c1ccc(C)cc1)c1cc([N+](=O)[O-])c2cccnc2c1O (stereo not shown) [compound 1049]	65.63
CC(=O)NC(c1ccccc1)c1cc([N+](=O)[O-])c2cccnc2c1O (stereo not shown) [compound 1050]	62.77
CCC(=O)NC(c1ccccc1OC)c1cc([N+](=O)[O-])c2cccnc2c1O (stereo not shown) [compound 1051]	65.27
CC(=O)NC(c1cccs1)c1cc(Cl)c2cccnc2c1O (stereo not shown) [compound 1052]	60.80
CCCCC(=O)NC(c1ccc(OC)c(OC)c1)c1cc([N+](=O)[O-])c2cccnc2c1O (stereo not shown) [compound 1053]	59.77

SMILES	Average Cell Viability after 24 Hours (% DMSO)
CCCCC(=O)NC(c1ccc(Cl)cc1)c1cc([N+](=O)[O-])c2cccnc2c1O (stereo not shown) [compound 1054]	46.45
CCCCC(=O)NC(c1ccco1)c1cc([N+](=O)[O-])c2cccnc2c1O (stereo not shown) [compound 1055]	57.43
CCCC(=O)NC(c1ccc(C(C)C)cc1)c1cc([N+](=O)[O-])c2cccnc2c1O (stereo not shown) [compound 1056]	65.75
CC(=O)NC(c1ccc(C(C)C)cc1)c1cc(Cl)c2cccnc2c1O (stereo not shown) [compound 1057]	50.02
CC(=O)NC(c1cccs1)c1ccc2cccnc2c1O (stereo not shown) [compound 1058]	69.11
CCN(CC)c1ccc(C(NC(=O)C(C)C)c2ccc3cccnc3c2O)cc1 (stereo not shown) [compound 1060]	63.44
CCCCC(=O)NC(c1ccc(OC)cc1)c1cc(Cl)c2cccnc2c1O (stereo not shown) [compound 1061]	62.27
CC(C)C(=O)NC(c1ccc(C(C)C)cc1)c1cc(Cl)c2cccnc2c1O (stereo not shown) [compound 1062]	60.77
CCCCC(=O)NC(c1cccs1)c1cc([N+](=O)[O-])c2cccnc2c1O (stereo not shown) [compound 1063]	85.12
CC(C)C(=O)NC(c1ccc2c(c1)OCO2)c1cc([N+](=O)[O-])c2cccnc2c1O (stereo not shown) [compound 1064]	67.37
O=C(CCc1ccccc1)NC(c1ccc2c(c1)OCO2)c1ccc2cccnc2c1O (stereo not shown) [compound 1065]	61.72
CCCC(=O)NC(c1ccc(N(C)C)cc1)c1cc(Cl)c2cccnc2c1O (stereo not shown) [compound 1066]	72.46
CCCCC(=O)NC(c1cccs1)c1cc(Cl)c2cccnc2c1O (stereo not shown) [compound 1067]	49.62
O=C(NC(c1ccc2c(c1)OCO2)c1cc([N+](=O)[O-])c2cccnc2c1O)C1CCCCC1 (stereo not shown) [compound 1068]	61.20
CCCCC(=O)NC(/C=C/c1ccccc1)c1cc([N+](=O)[O-])c2cccnc2c1O (stereo not shown) [compound 1069]	80.34
CCCC(=O)NC(c1ccc(N(CC)CC)cc1)c1cc(Cl)c2cccnc2c1O (stereo not shown) [compound 1070]	69.71
CC(C)C(=O)NC(c1ccc(C(C)C)cc1)c1cc([N+](=O)[O-])c2cccnc2c1O (stereo not shown) [compound 1071]	81.62
COc1ccc(C(NC(=O)C2CCCCC2)c2cc([N+](=O)[O-])c3cccnc3c2O)cc1OC (stereo not shown) [compound 1072]	78.35
COc1ccc(C(NC(=O)C(C)C)c2cc([N+](=O)[O-])c3cccnc3c2O)cc1 (stereo not shown) [compound 1073]	80.10
CCC(=O)NC(c1ccccc1Cl)c1cc([N+](=O)[O-])c2cccnc2c1O (stereo not shown) [compound 1074]	75.55
CCCC(=O)NC(c1ccco1)c1cc(Cl)c2cccnc2c1O (stereo not shown) [compound 1077]	38.99
Cc1ccc2ccc(C(Nc3ccccn3)c3cccc([N+](=O)[O-])c3)c(O)c2n1 (stereo not shown) [compound 1078]	67.66
